Measured values published in US20240239786A1, “COMPOSITIONS AND METHODS FOR THE TREATMENT AND PREVENTION OF CANCER” (Yale University, priority 2021, published 2024).

Experiments:
SKOV3 xenografts = experiment: Subcutaneous growth of SKOV3 xenografts; type: in vivo, NCG mice; details: i.p., 4 weeks; olaparib 50 mg/kg qd, DB4 10 mg/kg q2d
Description: SCID-Beige mice implanted ip with PEO4ip cells were treated daily (qd) with DB4 (10 mg/kg), olaparib (50 mg/kg), and the DB4-olaparib combination for 4 weeks. Kaplan Meier analysis was performed to determine the survival time of mice following treatments. Statistical significance was determined by the Mantel-Cox test comparing the control with each treatment group (N=4-5). […] DB4 given every two days (q2d) in the DB4-olaparib combination for 4 or 6 weeks (n=4-5). […] NOD CRISPR Prkdc Il2r Gamma (NCG) mice implanted sc with SKOV3 cells were treated as described in FIG. 10C for 4 weeks during which the tumor size was measured. Statistical significance was determined by the Wilcoxon matched-pairs signed test comparing the control with each treatment group and comparing between treatment groups. […]
The efficacy of the combination of DB4 and olaparib to treat SKOV3 tumor xenografts, as determined by the tumor size, was ascertained in a subcutaneous (s.c.) mouse model (Ratner E S et al., 2016, Br J Cancer, 114:777-786; Lin Z P et al., 2018, PLOS One, 13:e0207399). […]
The progression of PEO4ip tumor xenografts in mice was evaluated by measuring the size of the circumference at the lower one-third of the abdominal area with the mouse head positioned upward. […] The growth of SKOV3 tumor xenografts was evaluated by the size of s.c. tumor using a digital caliper. […]

RNR = experiment: dNTP measurement (HIV-1 RT-based dNTP assay) in PEO4 cells; type: cell-based; details: 50 μM DB4 or 1 μM triapine, 24 hr
Description: FIG. 2, comprising FIG. 2A through FIG. 2F, depicts representative results of follow-up assays of in silico hit compounds in PEO1 and PEO4 cells. FIG. 2A depicts representative results of cytotoxicity assays on selected 25 in silico hit compounds in PEO1 and PEO4 cells. Cells were plated for 24 hr and then treated with 50 μM compounds for 72 hr. For a positive control, cells were treated with 1 μM triapine for 72 hr. The percentage of cell survival was determined by the MTS cytotoxicity assay. […] Cells were treated with 50 μM compounds or 1 μM triapine for 24 hr. During the last hour, cells were pulse-labeled with EdU, stained with the Click-iT EdU Alexa Fluor 488 Assay Kit, counterstained with 7-AAD, and subsequently analyzed by flow cytometry. EdU-positive cells were gated to determine the percentage of the S phase cell population. […] During the last hour, cells were pulse-labeled with EdU, stained with the Click-iT EdU Alexa Fluor 488 Assay Kit, counterstained with 7-AAD, and subsequently analyzed by flow cytometry. […] The percentages of DNA synthesis in cells treated with each of 10 compounds and triapine relative to the DMSO-treated control is calculated and shown. […] Cells were extracted with 65% methanol for determination of each of dNTPs expressed as pmole/10^6 cells. […] The percentage of cell survival was determined by the MTS cytotoxicity assay. […]

| Structure (SMILES) | inhibition of subcutaneous growth of SKOV3 xenografts (tumor size) (SKOV3 xenografts) | levels of dNTPs (RNR) |
| --- | --- | --- |
| C=CCn1c(SCc2cccc(Cl)c2)nnc1C1CCN(Cc2nc3ccccc3s2)CC1 [DB4, 2-[(4-{4-allyl-5-[(3-chlorobenzyl)thio]-4H-1,2,4-triazol-3-yl}-1-piperidinyl)methyl]-1,3-benzothiazole] | moderately but significantly inhibited | significant decreases in the levels of dATP, dGTP, and dTTP |
| O=C(c1cc(Cc2n[nH]c(=O)c3ccccc23)ccc1F)N1CCN(C(=O)C2CC2)CC1 [olaparib, reference compound] | moderately but significantly inhibited |  |
| NC(=S)NN=Cc1ncccc1N [triapine, 3-aminopyridine-2-carboxaldehyde-thiosemicarbazone, reference compound] |  | significant and pronounced decreases in the levels of dATP and dGTP while causing a marked increase in dCTP and somewhat elevated dTTP |
